Results reported in US20220251163A1 (Sinopep-Allsino Biopharmaceutical Co., Ltd., priority 2019, published 2022).
Where two headings read alike, the source gives them in different places. *1 amine or outer side, *2 acyl side, *3 side chain or, on linkers, in order; H or OH if unused. Where a SMILES comes first, the peptide text is derived from it. Side-chain parts run from the residue outwards. The star is where a group is joined. C18 diacid = O=C(O)CCCCCCCCCCCCCCCCC(=O)*; γGlu = O=C(O)[C@H](CCC(=O)[*:2])N[*:1]; AEEA = NCCOCCOCC(=O)O

Tests used:
mGLP-1R = molecular target: T1, mGLP-1R (Mus musculus, UniProt O35659); experiment: GLP-1R agonist activity, cAMP in transfected HEK293 cells; format: cell-based
T1 construct: expressed in transfected cells; host or cells: HEK293
T1 sequence (O35659 22-463): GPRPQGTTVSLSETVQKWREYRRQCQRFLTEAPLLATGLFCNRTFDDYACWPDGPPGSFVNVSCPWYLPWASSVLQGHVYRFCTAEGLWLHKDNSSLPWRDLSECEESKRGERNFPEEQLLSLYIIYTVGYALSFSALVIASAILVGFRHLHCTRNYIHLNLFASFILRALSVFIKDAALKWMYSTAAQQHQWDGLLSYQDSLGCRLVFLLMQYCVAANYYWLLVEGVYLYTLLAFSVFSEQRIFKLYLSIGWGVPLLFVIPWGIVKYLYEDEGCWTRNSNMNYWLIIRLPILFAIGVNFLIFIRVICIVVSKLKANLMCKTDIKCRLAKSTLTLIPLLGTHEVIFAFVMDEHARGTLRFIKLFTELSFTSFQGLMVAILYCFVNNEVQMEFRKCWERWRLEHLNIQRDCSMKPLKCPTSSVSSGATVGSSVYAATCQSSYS

ob/ob mice = experiment: Blood glucose reducing experiment, single subcutaneous injection in ob/ob mice; format: in vivo; conditions: 100 μg/kg single s.c.; for Blood glucose at different time after administration, 0 h: 0 h (before administration); for AUC0-24 h Glu: blood glucose curve area within 24 h; for AUC0-24 h Glu Decrease rate: versus model control group;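 for all read-outs here: random blood glucose read at each time point, decrease rate given as percentage fall versus the model control group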
Protocol: The mice in each group received random blood glucose value measurement before (0 h) administration and 2, 4, 6, 10 and 24 h after administration, and then the time for measuring the random blood glucose was adjusted and prolonged to 34, 48, 58 or 72 h after administration according to the blood glucose condition of the mice in each group. Meanwhile, the random weight of the mice in each group before (0 h) administration and 24 h after administration was weighed, and then the random weight of the mice corresponding to the random blood glucose measurement condition 48 or 72 h after administration was weighed. The blood glucose decrease rate, the blood glucose curve area (AUC0-24 h Glu) within 24 h after administration and the decrease rate were calculated according to the following formula.
Blood glucose decrease rate=(blood glucose in the model control group−blood glucose in the administration group)/blood glucose in the model control group×100%
BG0, BG2, BG4, BG6, BG10 and BG24 represented the blood glucose values before administration (0 h) and 2, 4, 6, 10 and 24 h after administration respectively.
AUC0-24 h Glu(mmol/Lh·r) decrease rate=(model control group AUC0-24 h Glu−administration group AUC0-24 h Glu/model control group AUC0-24 h Glu×100%
Experiments were carried out twice, at an interval of 8-10 days.

[1] = Effect on random weight of ob/ob mice after single subcutaneous injection; format: in vivo; conditions: 100 μg/kg single s.c., X ± s, n = 7
Protocol: The mice in each group received random blood glucose value measurement before (0 h) administration and 2, 4, 6, 10 and 24 h after administration, and then the time for measuring the random blood glucose was adjusted and prolonged to 34, 48, 58 or 72 h after administration according to the blood glucose condition of the mice in each group. Meanwhile, the random weight of the mice in each group before (0 h) administration and 24 h after administration was weighed, and then the random weight of the mice corresponding to the random blood glucose measurement condition 48 or 72 h after administration was weighed.

mGIPR = molecular target: T2, mGIPR (Mus musculus, UniProt Q0P543); experiment: GIPR agonist activity, cAMP in transfected HEK293 cells; format: cell-based; conditions: HEK293 cells transfected with GIPR, cAMP, 20 min incubation; read-out: mGIPR EC50
T2 construct: expressed in transfected cells; host or cells: HEK293
T2 sequence (Q0P543 19-460): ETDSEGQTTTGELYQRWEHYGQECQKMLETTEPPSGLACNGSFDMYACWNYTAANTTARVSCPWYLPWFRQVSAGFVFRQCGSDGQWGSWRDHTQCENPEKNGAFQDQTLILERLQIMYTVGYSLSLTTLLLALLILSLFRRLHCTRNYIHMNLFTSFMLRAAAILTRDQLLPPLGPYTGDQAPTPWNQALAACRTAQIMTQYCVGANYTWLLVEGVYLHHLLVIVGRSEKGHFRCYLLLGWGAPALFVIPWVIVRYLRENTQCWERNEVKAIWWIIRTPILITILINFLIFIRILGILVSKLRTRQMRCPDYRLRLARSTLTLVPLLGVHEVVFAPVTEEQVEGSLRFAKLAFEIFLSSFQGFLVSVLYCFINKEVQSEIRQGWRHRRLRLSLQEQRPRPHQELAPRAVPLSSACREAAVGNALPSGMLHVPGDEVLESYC
Protocol: HEK293 cells were co-transfected with cDNA encoding GLP-1R or GIPR. In a test for determining the compound, the cells were inoculated in a 96-well plate 2 h in advance, the polypeptide compound was dissolved with DMSO, and diluted to different multiples with a culture medium containing 0.1% bovine serum albumin and added to the co-transfected cells.

Structure (SMILES)	EC50 (mGLP-1R) [nM]	Blood glucose at different time after administration, 0 h (ob/ob mice; X ± s, n = 7) [mmol/L]	Decrease rate of blood glucose at different time after administration, 2 h (ob/ob mice) [%]	Blood glucose at different time after administration, 2 h (ob/ob mice; X ± s, n = 7) [mmol/L]	Decrease rate of blood glucose at different time after administration, 4 h (ob/ob mice) [%]	Blood glucose at different time after administration, 4 h (ob/ob mice; X ± s, n = 7) [mmol/L]	Decrease rate of blood glucose at different time after administration, 6 h (ob/ob mice) [%]	Blood glucose at different time after administration, 6 h (ob/ob mice; X ± s, n = 7) [mmol/L]	Decrease rate of blood glucose at different time after administration, 10 h (ob/ob mice) [%]	Blood glucose at different time after administration, 10 h (ob/ob mice; X ± s, n = 7) [mmol/L]	Decrease rate of blood glucose at different time after administration, 24 h (ob/ob mice) [%]	Blood glucose at different time after administration, 24 h (ob/ob mice; X ± s, n = 7) [mmol/L]	AUC0-24 h Glu (ob/ob mice; X ± s, n = 7) [mmol·h/L]	AUC0-24 h Glu Decrease rate (ob/ob mice) [%]	Changes of random body weight at different time after administration, 0 h [1] [g]	Random body weight at different time after administration, 0 h [1] [g]	Changes of random body weight at different time after administration, 24 h [1] [g]	Random body weight at different time after administration, 24 h [1] [g]	also measured
CC[C@H](C)[C@H](NC(=O)[C@H](CC(C)C)NC(=O)[C@H](Cc1c[nH]c2ccccc12)NC(=O)[C@H](CCC(N)=O)NC(=O)[C@@H](NC(=O)[C@H](Cc1ccccc1)NC(=O)[C@H](C)NC(=O)[C@H](CCCCNC(=O)COCCOCCNC(=O)COCCOCCNC(=O)CC[C@H](NC(=O)CCCCCCCCCCCCCCCCC(=O)O)C(=O)O)NC(=O)[C@H](CCC(N)=O)NC(=O)[C@H](C)NC(=O)[C@@H](NC(=O)[C@H](CCCCN)NC(=O)[C@H](CC(=O)O)NC(=O)[C@H](CC(C)C)NC(=O)[C@@H](NC(=O)[C@@H](NC(=O)[C@H](CO)NC(=O)[C@H](Cc1ccc(O)cc1)NC(=O)[C@H](CC(=O)O)NC(=O)[C@H](CO)NC(=O)[C@@H](NC(=O)[C@H](Cc1ccccc1)NC(=O)[C@@H](NC(=O)CNC(=O)[C@H](CCC(=O)O)NC(=O)[C@@H](NC(=O)[C@@H](N)Cc1ccc(O)cc1)C(C)C)[C@@H](C)O)[C@@H](C)O)[C@@H](C)CC)C(C)C)[C@@H](C)CC)C(C)C)C(=O)N[C@@H](C)C(=O)NCC(=O)NCC(=O)N1CCC[C@H]1C(=O)N[C@@H](CO)C(=O)N[C@@H](CO)C(=O)NCC(=O)N[C@@H](C)C(=O)N1CCC[C@H]1C(=O)N1CCC[C@H]1C(=O)N1CCC[C@H]1C(=O)N[C@@H](CO)C(N)=O [ID NO: 1] (H-YVEGTFTSDYSIVLDKIAQK([AEEA-AEEA-γGlu-C18 diacid])AFVQWLIAGGPSSGAPPPS-NH2)	0.0146	20.31 ± 0.99	50.2	10.12 ± 0.87	51.1	9.94 ± 0.86	51.6	9.83 ± 0.87	47.0	10.76 ± 1.12	41.5	11.89 ± 2.12	269.99 ± 19.45	47.1	0.0 ± 0.0	43.2 ± 0.5	-1.1 ± 0.2	42.0 ± 0.5	Decrease rate of blood glucose at different time after administration, 34 h (ob/ob mice; 34 h): 31.4%; Blood glucose at different time after administration, 34 h (ob/ob mice; 34 h, X ± s, n = 7): 13.93 ± 1.01 mmol/L; Decrease rate of blood glucose at different time after administration, 48 h (ob/ob mice; 48 h): 14.7%; Changes of random body weight at different time after administration, 48 h ([1]; 48 h): -0.6 ± 0.1 g; Random body weight at different time after administration, 48 h ([1]; 48 h): 42.7 ± 0.6 g
CCCCCCCCCCCCCCCC(=O)N[C@@H](CCC(=O)NCCCC[C@H](NC(=O)[C@H](CCC(N)=O)NC(=O)[C@H](C)NC(=O)[C@@H](NC(=O)[C@H](CCCCN)NC(=O)[C@H](CC(=O)O)NC(=O)[C@H](CC(C)C)NC(=O)C1(NC(=O)[C@@H](NC(=O)[C@H](CO)NC(=O)[C@H](Cc2ccc(O)cc2)NC(=O)[C@H](CC(=O)O)NC(=O)[C@H](CO)NC(=O)[C@@H](NC(=O)[C@H](Cc2ccccc2)NC(=O)[C@@H](NC(=O)CNC(=O)[C@H](CCC(=O)O)NC(=O)C2(NC(=O)[C@@H](N)Cc3ccc(O)cc3)CCCC2)[C@@H](C)O)[C@@H](C)O)[C@@H](C)CC)CCCC1)[C@@H](C)CC)C(=O)N[C@@H](C)C(=O)N[C@@H](Cc1ccccc1)C(=O)N[C@H](C(=O)N[C@@H](CCC(N)=O)C(=O)N[C@@H](Cc1c[nH]c2ccccc12)C(=O)N[C@@H](CC(C)C)C(=O)N[C@H](C(=O)N[C@@H](C)C(=O)NCC(=O)NCC(=O)N1CCC[C@H]1C(=O)N[C@@H](CO)C(=O)N[C@@H](CO)C(=O)NCC(=O)N[C@@H](C)C(=O)N1CCC[C@H]1C(=O)N1CCC[C@H]1C(=O)N1CCC[C@H]1C(=O)N[C@@H](CO)C(N)=O)[C@@H](C)CC)C(C)C)C(=O)O [ID NO: 14]	–	–	–	–	–	–	–	–	–	–	–	–	–	–	–	–	–	–	EC50 (mGLP-1R; HEK293 cells transfected with GLP-1R, cAMP, 20 min incubation, read-out: mGLP-1R EC50): 0.0311 nM; EC50 (mGIPR): 0.0517 nM
CC[C@H](C)[C@H](NC(=O)[C@H](CC(C)C)NC(=O)[C@H](Cc1c[nH]c2ccccc12)NC(=O)[C@H](CCC(N)=O)NC(=O)[C@@H](NC(=O)[C@H](Cc1ccccc1)NC(=O)[C@H](C)NC(=O)[C@H](CCCCNC(=O)COCCOCCNC(=O)COCCOCCNC(=O)CC[C@H](NC(=O)CCCCCCCCCCCCCCCCC(=O)O)C(=O)O)NC(=O)[C@H](CCC(N)=O)NC(=O)[C@H](C)NC(=O)[C@@H](NC(=O)[C@H](CCCCN)NC(=O)[C@H](CC(=O)O)NC(=O)[C@H](CC(C)C)NC(=O)C1(NC(=O)[C@@H](NC(=O)[C@H](CO)NC(=O)[C@H](Cc2ccc(O)cc2)NC(=O)[C@H](CC(=O)O)NC(=O)[C@H](CO)NC(=O)[C@@H](NC(=O)[C@H](Cc2ccccc2)NC(=O)[C@@H](NC(=O)CNC(=O)[C@H](CCC(=O)O)NC(=O)C2(NC(=O)[C@@H](N)Cc3ccc(O)cc3)CCC2)[C@@H](C)O)[C@@H](C)O)[C@@H](C)CC)CCC1)[C@@H](C)CC)C(C)C)C(=O)N[C@@H](C)C(=O)NCC(=O)NCC(=O)N1CCC[C@H]1C(=O)N[C@@H](CO)C(=O)N[C@@H](CO)C(=O)NCC(=O)N[C@@H](C)C(=O)N1CCC[C@H]1C(=O)N1CCC[C@H]1C(=O)N1CCC[C@H]1C(=O)N[C@@H](CO)C(N)=O [ID NO: 2]	0.00613	–	–	–	–	–	–	–	–	–	–	–	–	–	–	–	–	–	–
CC[C@H](C)[C@H](NC(=O)[C@H](CO)NC(=O)[C@H](Cc1ccc(O)cc1)NC(=O)[C@H](CC(=O)O)NC(=O)[C@H](CO)NC(=O)[C@@H](NC(=O)[C@H](Cc1ccccc1)NC(=O)[C@@H](NC(=O)CNC(=O)[C@H](CCC(=O)O)NC(=O)[C@H](C)NC(=O)[C@@H](N)Cc1ccc(O)cc1)[C@@H](C)O)[C@@H](C)CC)C(=O)N[C@@H](C)C(=O)N[C@@H](CCSC)C(=O)N[C@@H](CC(=O)O)C(=O)N[C@@H](CCCCN)C(=O)N[C@H](C(=O)N[C@@H](Cc1c[nH]cn1)C(=O)N[C@@H](CCC(N)=O)C(=O)N[C@@H](CCC(N)=O)C(=O)N[C@@H](CC(=O)O)C(=O)N[C@@H](Cc1ccccc1)C(=O)N[C@H](C(=O)N[C@@H](CC(N)=O)C(=O)N[C@@H](Cc1c[nH]c2ccccc12)C(=O)N[C@@H](CC(C)C)C(=O)N[C@@H](CC(C)C)C(=O)N[C@@H](C)C(=O)N[C@@H](CCC(N)=O)C(=O)N[C@@H](CCCCN)C(=O)NCC(=O)N[C@@H](CCCCN)C(=O)N[C@@H](CCCCN)C(=O)N[C@@H](CC(N)=O)C(=O)N[C@@H](CC(=O)O)C(=O)N[C@@H](Cc1c[nH]c2ccccc12)C(=O)N[C@@H](CCCCN)C(=O)N[C@@H](Cc1c[nH]cn1)C(=O)N[C@@H](CC(N)=O)C(=O)N[C@H](C(=O)N[C@H](C(=O)N[C@@H](CCC(N)=O)C(=O)O)[C@@H](C)O)[C@@H](C)CC)C(C)C)[C@@H](C)CC [GIP, Glucose-dependent inotropic peptide, reference compound]	–	20.36 ± 0.74	38.0	12.63 ± 1.70	38.8	12.46 ± 1.66	32.7	13.71 ± 0.86	30.5	14.16 ± 1.24	12.4	17.84 ± 0.87	363.99 ± 14.21	28.7	0.0 ± 0.0	43.5 ± 0.8	0.1 ± 0.1	43.6 ± 0.8	–
